In patent US20240174718A1, “RYANODINE RECEPTOR INHIBITOR COMPOUNDS AND METHODS RELATING THERETO” (Vanderbilt University, priority 2022, published 2024):
Like-named read-outs stand apart in the source and are kept apart here.

Legend:
RyR2 [1] = biological target: T1, RyR2 (Mus musculus, UniProt E9Q401); assay: Calcium spark frequency in permeabilized Casq2 knockout cardiomyocytes (screen for RyR2 activity); type: cell-based
T1 construct: spontaneous openings of intracellular RyR2 Ca^2+ release channels; endogenous in cells; host or cells: ventricular cardiomyocytes isolated from Casq2-/- mice (saponin-permeabilized in A1, intact in A7)
T1 sequence (E9Q401 whole entry): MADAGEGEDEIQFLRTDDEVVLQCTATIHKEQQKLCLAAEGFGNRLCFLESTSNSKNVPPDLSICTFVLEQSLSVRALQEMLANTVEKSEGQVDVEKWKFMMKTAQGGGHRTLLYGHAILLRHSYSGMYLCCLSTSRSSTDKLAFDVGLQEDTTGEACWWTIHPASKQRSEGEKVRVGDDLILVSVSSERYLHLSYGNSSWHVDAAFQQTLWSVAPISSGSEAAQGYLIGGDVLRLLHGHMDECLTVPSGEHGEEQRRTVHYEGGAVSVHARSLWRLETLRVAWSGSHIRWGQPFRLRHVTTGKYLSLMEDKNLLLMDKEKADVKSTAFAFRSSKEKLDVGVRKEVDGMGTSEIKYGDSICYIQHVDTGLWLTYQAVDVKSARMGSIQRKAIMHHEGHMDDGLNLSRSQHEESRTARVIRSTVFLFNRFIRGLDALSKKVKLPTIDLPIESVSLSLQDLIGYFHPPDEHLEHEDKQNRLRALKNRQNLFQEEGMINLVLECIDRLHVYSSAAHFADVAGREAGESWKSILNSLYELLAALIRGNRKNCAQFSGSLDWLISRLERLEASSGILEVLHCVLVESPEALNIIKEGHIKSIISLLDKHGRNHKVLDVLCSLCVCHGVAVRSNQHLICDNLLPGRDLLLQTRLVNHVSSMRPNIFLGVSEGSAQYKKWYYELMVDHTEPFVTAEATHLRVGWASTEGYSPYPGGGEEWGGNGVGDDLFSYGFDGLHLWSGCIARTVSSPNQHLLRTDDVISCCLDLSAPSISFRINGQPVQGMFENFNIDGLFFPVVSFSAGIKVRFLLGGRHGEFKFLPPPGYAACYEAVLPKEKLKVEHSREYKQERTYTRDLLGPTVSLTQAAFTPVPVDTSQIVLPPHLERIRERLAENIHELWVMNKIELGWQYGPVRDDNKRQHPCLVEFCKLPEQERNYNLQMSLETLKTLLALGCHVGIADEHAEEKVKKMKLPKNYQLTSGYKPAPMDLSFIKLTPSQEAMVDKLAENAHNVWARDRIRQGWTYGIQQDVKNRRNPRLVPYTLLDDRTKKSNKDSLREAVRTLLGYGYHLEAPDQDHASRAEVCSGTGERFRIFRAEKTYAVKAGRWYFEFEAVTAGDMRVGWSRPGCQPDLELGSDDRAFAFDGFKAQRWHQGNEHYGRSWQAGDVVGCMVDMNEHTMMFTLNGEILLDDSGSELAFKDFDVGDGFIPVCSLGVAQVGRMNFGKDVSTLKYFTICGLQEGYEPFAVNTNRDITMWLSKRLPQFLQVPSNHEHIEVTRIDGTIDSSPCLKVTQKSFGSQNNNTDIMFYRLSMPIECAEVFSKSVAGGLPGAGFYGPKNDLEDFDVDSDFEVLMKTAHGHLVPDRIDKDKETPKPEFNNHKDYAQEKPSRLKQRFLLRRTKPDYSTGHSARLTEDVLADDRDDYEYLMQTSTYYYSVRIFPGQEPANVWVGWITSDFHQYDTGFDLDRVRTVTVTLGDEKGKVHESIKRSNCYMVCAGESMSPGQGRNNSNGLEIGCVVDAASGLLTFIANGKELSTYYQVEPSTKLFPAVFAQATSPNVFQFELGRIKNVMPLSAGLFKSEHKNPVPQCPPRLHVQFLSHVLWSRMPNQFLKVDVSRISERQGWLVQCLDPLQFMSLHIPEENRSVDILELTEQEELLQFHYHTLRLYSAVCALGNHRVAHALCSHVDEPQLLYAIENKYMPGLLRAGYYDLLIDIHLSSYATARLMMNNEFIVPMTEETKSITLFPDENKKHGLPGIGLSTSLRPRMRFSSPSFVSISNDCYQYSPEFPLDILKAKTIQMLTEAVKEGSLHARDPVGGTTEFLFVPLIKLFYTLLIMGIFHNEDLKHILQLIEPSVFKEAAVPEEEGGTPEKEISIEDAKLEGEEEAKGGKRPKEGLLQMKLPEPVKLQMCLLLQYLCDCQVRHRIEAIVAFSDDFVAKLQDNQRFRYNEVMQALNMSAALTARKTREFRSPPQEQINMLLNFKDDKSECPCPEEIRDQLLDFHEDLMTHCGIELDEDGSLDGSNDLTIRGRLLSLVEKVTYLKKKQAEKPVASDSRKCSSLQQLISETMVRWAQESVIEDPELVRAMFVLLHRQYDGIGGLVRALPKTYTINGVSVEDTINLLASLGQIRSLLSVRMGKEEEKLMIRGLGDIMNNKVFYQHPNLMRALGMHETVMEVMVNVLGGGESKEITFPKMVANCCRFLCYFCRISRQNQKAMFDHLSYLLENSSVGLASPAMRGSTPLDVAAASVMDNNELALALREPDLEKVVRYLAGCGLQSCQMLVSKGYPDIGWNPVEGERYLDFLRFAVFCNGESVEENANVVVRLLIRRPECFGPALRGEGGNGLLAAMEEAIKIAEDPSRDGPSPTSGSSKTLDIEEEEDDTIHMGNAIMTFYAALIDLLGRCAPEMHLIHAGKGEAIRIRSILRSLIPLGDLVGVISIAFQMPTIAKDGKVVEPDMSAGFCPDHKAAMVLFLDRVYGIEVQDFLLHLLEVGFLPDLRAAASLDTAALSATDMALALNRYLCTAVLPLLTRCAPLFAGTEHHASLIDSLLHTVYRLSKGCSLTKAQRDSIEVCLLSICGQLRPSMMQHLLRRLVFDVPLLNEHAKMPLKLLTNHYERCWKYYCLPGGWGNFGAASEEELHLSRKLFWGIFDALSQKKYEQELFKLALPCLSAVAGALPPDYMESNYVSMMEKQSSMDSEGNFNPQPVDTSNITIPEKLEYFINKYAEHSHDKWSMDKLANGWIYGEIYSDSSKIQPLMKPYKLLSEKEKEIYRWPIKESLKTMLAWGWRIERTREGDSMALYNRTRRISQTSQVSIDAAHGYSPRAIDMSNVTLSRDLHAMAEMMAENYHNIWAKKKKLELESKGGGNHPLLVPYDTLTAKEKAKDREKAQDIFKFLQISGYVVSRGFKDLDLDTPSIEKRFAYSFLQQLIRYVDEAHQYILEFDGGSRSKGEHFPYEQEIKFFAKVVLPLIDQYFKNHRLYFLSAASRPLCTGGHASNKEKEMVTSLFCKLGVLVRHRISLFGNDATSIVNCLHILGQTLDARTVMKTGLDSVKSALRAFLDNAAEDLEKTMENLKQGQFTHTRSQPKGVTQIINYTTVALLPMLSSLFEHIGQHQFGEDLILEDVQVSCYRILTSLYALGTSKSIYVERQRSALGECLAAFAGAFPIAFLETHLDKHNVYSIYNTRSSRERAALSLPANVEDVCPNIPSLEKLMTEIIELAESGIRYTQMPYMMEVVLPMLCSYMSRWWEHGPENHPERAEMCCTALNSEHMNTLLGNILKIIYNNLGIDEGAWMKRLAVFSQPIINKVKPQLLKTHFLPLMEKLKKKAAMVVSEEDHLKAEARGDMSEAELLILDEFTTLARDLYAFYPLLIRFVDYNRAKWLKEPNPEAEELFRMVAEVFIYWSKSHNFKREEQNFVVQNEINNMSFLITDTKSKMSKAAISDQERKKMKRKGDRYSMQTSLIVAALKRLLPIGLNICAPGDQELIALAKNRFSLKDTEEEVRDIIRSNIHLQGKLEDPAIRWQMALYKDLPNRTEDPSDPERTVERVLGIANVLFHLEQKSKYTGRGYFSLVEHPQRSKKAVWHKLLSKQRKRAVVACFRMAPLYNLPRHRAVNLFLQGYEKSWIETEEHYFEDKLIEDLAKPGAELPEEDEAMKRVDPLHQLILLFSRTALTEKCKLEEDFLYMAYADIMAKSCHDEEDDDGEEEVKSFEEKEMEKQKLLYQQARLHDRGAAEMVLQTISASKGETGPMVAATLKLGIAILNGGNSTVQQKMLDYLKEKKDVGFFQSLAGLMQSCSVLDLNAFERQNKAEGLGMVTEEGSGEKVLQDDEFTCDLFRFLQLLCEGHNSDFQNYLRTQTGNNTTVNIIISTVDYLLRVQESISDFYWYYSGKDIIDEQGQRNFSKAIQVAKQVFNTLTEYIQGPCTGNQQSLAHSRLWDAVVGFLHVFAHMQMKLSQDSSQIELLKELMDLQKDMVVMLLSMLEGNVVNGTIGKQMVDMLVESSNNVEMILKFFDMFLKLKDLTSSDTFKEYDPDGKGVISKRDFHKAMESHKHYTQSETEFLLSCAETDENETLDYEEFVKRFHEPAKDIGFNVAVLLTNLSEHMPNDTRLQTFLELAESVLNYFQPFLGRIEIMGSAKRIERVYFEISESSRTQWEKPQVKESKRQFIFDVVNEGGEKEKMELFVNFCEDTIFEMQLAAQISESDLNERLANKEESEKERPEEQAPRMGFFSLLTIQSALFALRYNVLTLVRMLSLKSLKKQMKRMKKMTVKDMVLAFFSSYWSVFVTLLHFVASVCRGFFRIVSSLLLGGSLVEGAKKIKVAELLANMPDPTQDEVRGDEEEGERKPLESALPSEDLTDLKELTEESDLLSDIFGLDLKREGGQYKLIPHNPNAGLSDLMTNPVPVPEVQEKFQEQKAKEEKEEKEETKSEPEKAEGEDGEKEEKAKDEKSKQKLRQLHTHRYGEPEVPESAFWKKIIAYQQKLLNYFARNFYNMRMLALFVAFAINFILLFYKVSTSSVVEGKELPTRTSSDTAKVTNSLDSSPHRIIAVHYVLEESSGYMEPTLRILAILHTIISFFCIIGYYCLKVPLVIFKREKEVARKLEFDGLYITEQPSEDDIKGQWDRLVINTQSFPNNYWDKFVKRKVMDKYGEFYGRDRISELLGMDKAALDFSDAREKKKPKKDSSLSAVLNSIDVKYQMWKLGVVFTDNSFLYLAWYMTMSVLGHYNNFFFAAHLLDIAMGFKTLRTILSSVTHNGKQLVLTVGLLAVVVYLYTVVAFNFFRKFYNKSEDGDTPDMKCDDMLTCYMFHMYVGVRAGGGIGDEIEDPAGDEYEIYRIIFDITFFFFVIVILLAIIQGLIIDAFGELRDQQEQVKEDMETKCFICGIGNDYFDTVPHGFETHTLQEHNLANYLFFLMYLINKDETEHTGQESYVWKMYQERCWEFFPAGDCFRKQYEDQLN
Protocol: FIGS. 3(A)-3(E) show a biological screen for cardiac ryanodine receptor (RyR2) activity. Note that ‘ent-24’=9, and ‘ent-18’ refers to structure 8 in FIG. 1, which is also the enantiomer of a natural product. (3A) Calcium spark frequency in permeabilized murine cardiomyocytes was recorded as an index of RyR2 activity. Compounds were screened at 25 uM concentration after 10-minute incubation. *=p<0.001 by one-way ANOVA with Tukey's post-hoc test. (3B) Incubation time was extended to 60 minutes for the 12- and 30-membered rings. (3C) The seco-acid precursors to 12- and 18-membered rings were tested at 25 uM. (3D) Concentration response curve for the 18-membered ring and (3E) 24-membered ring. Cells were incubated for 30 minutes
Activity of Ring-Size Analogues. […] Ventricular cardiomyocytes were isolated, permeabilized with saponin, and incubated with vehicle (DMSO) or 25 μM of selected compound. RyR2 activity was measured in the form of calcium sparks, which are elementary Ca^2+ release events generated by spontaneous openings of intracellular RyR2 Ca^2+ release channels. Importantly, saponin selectively permeabilizes the sarcolemmal membrane, leaving the SR membrane intact and ensuring equivalent access of the compounds to the SR membrane where RyR2 resides.
The compounds were first screened by incubating cardiomyocytes for 10 minutes at 25 μM concentration and compared to vehicle (DMSO) conditions.

RyR2 [2] = biological target: T2, RyR2 (Sus scrofa, UniProt A0A5G2R1W3); settings: read-out: IC50, ryanodine binding assay (ent-1 comparison); cited from earlier work
T2 construct: isolated SR vesicles derived from porcine cardiac muscle; from tissue; host or cells: porcine heart (cardiac sarcoplasmic reticulum vesicles)

RyR2 [3] = biological target: T1, RyR2; settings: read-out: IC50, intact cardiomyocyte assay (ent-1 comparison); cited from earlier work
[4] = cited from earlier work
Casq2-/- mice = settings: cited from earlier work
[5] = test system: mammalian cardiac ryanodine receptor (RyR2); settings: cited from earlier work

## (+)-ent-verticilide [ent-1]
RyR2 [1]; 25 μM, 10 minutes incubation, vs vehicle (DMSO)
  RyR2-mediated Ca2+ spark frequency: significantly inhibited
RyR2 [2]
  IC50: 100 nM
RyR2 [3]
  IC50: 90 nM
[4]; 3 mg/kg dose
  half-life of ent-1: 6.9 h
[4]; 30 mg/kg dose
  half-life of ent-1: 6.4 h
[4]; mice
  t1/2 of ent-1: 6.92 h
Casq2-/- mice; 30 mg/kg, same arrhythmia induction protocol
  reduction in ventricular ectopy burden (ent-1): 70%
Casq2-/- mice; single dose study, 3 and 30 mg/kg i.p., Casq2-/- mice
  antiarrhythmic efficacy in vivo (ent-1): antiarrhythmic efficacy
[5]
  RyR2-mediated spontaneous calcium release: significantly reduced
  potency of inhibition of mammalian cardiac ryanodine receptor calcium release channels: sub-micromolar potency

## (−)-nat-verticilide [reference compound]
RyR2 [1]
  activity in the calcium spark assay (summary statement): none of these were active
[5]
  RyR2-mediated spontaneous calcium release: no effect
